Test results from ChEMBL document CHEMBL3627608, “Crystal structures of human RIP2 kinase catalytic domain complexed with ATP-competitive inhibitors: Foundations for understanding inhibitor selectivity” (Bioorg Med Chem, 2015).

Experiments:
[1] = biological target: T1, MAP/microtubule affinity-regulating kinase 4 (Homo sapiens) (UniProt Q96L34); assay: Inhibition of MARK4 (unknown origin) at 10 uM after 120 mins P33 radiolabeled kinase activity assay
T1 sequence (whole entry): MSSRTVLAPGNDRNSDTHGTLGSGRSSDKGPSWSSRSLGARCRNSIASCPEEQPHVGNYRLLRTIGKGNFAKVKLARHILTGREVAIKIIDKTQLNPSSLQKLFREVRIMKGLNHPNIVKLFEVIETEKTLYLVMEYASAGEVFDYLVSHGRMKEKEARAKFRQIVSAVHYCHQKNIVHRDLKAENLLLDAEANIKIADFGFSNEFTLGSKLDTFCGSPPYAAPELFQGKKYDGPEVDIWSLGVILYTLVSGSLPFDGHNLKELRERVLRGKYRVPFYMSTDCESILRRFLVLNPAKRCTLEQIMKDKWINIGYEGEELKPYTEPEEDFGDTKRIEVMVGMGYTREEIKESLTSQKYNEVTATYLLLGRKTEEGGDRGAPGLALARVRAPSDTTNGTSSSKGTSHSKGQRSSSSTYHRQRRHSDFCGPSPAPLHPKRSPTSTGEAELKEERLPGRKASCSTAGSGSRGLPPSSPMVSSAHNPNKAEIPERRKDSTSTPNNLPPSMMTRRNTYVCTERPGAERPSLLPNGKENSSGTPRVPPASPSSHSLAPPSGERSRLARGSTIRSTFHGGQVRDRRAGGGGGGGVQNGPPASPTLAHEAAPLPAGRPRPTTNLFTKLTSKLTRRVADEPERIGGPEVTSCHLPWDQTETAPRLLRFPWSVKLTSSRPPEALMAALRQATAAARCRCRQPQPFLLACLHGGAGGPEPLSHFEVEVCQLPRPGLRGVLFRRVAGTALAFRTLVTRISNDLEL

[2] = biological target: Serine/threonine-protein kinase Chk2 (Homo sapiens) (UniProt O96017); assay: Inhibition of CHK2 (unknown origin) at 10 uM after 120 mins P33 radiolabeled kinase activity assay
Serine/threonine-protein kinase Chk2 (Homo sapiens), sequence (O96017 whole entry): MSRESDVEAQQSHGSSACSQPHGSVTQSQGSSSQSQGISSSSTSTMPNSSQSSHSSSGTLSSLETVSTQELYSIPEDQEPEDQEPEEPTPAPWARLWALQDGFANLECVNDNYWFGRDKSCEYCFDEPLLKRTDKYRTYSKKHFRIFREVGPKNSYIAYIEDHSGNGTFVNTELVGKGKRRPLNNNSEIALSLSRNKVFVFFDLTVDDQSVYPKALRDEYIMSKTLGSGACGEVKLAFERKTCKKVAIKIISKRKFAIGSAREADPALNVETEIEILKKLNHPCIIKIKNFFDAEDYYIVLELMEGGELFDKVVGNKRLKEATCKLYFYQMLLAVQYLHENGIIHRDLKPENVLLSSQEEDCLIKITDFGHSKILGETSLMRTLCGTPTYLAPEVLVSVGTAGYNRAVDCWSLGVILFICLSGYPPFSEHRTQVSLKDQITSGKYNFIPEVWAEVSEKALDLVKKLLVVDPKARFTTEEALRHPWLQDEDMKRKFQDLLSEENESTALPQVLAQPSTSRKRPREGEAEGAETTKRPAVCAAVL

[3] = biological target: T2, Serine/threonine-protein kinase D2 (Homo sapiens) (UniProt Q9BZL6); assay: Inhibition of PKD2 (unknown origin) at 10 uM after 120 mins P33 radiolabeled kinase activity assay
T2 sequence (whole entry): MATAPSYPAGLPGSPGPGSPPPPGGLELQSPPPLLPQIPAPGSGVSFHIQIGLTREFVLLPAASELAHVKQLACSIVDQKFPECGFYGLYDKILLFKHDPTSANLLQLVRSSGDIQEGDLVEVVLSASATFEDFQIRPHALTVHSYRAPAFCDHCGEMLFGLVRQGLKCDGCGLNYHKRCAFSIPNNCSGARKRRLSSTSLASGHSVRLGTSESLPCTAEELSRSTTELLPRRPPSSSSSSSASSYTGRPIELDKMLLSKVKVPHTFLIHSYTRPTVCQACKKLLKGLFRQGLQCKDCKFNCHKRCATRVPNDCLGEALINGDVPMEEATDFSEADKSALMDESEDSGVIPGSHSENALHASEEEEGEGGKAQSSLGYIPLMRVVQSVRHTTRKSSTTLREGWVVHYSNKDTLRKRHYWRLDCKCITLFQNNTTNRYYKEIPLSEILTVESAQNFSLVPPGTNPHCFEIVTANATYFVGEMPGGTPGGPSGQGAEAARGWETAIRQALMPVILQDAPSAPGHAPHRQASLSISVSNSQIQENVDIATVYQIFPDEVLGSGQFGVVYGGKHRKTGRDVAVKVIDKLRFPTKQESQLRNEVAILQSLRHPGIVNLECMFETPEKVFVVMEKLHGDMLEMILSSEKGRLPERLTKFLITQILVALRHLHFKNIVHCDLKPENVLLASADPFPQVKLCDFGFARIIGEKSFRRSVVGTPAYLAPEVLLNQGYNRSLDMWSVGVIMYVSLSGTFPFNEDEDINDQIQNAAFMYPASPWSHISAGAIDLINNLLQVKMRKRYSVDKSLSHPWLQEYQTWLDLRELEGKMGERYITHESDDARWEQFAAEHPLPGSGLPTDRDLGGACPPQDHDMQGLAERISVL

[4] = biological target: Activated CDC42 kinase 1 (Homo sapiens) (UniProt Q07912); assay: Inhibition of ACK1 (unknown origin) at 10 uM after 120 mins P33 radiolabeled kinase activity assay
Activated CDC42 kinase 1 (Homo sapiens), sequence (Q07912 whole entry, looked up): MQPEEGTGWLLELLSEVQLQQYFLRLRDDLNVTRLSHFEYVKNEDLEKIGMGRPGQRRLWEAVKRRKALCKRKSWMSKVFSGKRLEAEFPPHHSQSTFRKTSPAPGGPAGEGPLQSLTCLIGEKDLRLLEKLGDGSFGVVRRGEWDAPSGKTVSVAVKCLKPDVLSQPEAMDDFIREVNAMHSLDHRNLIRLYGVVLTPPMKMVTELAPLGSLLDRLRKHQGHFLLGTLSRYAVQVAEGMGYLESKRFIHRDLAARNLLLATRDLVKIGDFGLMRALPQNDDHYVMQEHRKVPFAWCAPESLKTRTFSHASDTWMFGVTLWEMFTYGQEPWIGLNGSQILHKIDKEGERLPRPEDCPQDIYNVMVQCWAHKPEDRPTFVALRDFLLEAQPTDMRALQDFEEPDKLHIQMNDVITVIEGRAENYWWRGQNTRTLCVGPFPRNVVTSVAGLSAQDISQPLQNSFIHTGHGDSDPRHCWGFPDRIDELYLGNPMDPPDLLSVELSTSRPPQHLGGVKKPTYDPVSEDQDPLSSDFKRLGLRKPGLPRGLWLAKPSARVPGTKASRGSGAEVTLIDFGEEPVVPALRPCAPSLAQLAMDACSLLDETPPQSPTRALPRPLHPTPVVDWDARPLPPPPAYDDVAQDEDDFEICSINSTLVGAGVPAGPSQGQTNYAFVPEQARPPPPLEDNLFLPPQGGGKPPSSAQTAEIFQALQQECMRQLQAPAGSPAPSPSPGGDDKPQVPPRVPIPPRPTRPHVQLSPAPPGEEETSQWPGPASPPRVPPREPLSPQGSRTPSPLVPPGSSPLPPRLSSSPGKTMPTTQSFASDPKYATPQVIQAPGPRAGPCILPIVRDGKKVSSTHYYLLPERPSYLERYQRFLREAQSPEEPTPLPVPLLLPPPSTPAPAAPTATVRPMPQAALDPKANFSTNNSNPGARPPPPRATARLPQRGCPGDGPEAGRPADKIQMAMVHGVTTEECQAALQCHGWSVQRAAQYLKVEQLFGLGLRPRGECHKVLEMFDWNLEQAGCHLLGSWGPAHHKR

Homo sapiens = organism: Homo sapiens; assay: Inhibition of PKG1alpha (unknown origin) at 10 uM after 120 mins P33 radiolabeled kinase activity assay
[5] = biological target: Receptor tyrosine-protein kinase erbB-4 (Homo sapiens) (UniProt Q15303); assay: Inhibition of ERBB4 (unknown origin) at 10 uM after 120 mins P33 radiolabeled kinase activity assay
Receptor tyrosine-protein kinase erbB-4 (Homo sapiens), sequence (Q15303 whole entry, canonical isoform): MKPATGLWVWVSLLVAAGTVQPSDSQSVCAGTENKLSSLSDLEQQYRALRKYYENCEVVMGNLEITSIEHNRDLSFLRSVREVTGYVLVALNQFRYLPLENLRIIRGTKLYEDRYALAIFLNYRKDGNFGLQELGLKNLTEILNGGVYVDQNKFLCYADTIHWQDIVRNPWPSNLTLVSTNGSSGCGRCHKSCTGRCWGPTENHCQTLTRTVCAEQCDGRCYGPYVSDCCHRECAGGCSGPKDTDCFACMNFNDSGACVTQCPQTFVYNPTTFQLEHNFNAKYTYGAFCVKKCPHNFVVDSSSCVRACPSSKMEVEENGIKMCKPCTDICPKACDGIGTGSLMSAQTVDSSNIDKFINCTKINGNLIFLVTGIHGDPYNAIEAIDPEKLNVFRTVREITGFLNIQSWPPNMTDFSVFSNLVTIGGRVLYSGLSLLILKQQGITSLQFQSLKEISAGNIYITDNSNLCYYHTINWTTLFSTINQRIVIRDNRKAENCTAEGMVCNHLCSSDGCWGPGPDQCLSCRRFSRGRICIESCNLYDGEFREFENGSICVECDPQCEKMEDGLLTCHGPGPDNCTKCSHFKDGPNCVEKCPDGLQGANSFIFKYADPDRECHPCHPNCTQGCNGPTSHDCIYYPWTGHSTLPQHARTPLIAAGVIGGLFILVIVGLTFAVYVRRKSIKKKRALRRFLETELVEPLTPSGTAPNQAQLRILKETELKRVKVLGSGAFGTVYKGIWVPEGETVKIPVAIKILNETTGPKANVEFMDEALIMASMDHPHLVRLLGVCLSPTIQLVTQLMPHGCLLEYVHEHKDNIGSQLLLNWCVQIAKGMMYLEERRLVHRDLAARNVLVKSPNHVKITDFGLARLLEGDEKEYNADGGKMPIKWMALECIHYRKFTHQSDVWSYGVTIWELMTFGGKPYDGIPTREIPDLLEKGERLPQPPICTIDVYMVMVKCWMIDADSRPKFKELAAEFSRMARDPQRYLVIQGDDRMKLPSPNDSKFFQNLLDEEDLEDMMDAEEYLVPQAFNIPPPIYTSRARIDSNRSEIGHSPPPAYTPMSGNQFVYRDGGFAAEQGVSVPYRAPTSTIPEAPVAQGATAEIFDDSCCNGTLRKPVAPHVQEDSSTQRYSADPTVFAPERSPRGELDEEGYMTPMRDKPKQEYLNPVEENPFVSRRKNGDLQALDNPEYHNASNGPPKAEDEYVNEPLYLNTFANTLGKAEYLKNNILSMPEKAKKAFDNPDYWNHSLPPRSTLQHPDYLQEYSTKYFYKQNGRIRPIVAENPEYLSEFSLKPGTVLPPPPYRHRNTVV

[6] = biological target: Casein kinase I isoform delta (Homo sapiens) (UniProt P48730); assay: Inhibition of CK1delta (unknown origin) at 10 uM after 120 mins P33 radiolabeled kinase activity assay
Casein kinase I isoform delta (Homo sapiens), sequence (P48730 whole entry, looked up, canonical isoform): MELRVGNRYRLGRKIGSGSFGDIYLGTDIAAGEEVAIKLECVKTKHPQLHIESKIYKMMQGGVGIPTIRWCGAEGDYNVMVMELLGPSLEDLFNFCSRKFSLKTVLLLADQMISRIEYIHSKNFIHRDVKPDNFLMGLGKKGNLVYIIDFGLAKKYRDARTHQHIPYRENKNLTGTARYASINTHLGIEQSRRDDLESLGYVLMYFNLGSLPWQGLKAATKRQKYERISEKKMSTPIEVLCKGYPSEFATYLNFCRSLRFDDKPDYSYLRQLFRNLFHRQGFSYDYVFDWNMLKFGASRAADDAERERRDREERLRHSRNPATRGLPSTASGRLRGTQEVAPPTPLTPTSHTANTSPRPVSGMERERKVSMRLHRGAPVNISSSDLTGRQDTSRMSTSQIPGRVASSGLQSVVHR

[7] = biological target: T3, Aurora kinase A (Homo sapiens) (UniProt O14965); assay: Inhibition of Aurora A (unknown origin) at 10 uM after 120 mins P33 radiolabeled kinase activity assay
T3 sequence (whole entry): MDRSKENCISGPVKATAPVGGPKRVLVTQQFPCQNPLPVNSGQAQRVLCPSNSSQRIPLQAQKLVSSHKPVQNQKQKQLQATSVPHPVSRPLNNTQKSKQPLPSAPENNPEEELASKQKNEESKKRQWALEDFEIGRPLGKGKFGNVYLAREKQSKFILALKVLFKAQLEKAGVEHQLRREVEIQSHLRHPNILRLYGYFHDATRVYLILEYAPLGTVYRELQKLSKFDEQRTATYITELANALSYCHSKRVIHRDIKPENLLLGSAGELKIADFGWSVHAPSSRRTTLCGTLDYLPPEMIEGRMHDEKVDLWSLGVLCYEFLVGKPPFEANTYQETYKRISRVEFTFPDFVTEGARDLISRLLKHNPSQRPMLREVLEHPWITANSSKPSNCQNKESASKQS

[8] = biological target: Mitogen-activated protein kinase 11 (Homo sapiens) (UniProt Q15759); assay: Inhibition of P38beta (unknown origin) at 10 uM after 120 mins P33 radiolabeled kinase activity assay
Mitogen-activated protein kinase 11 (Homo sapiens), sequence (Q15759 whole entry): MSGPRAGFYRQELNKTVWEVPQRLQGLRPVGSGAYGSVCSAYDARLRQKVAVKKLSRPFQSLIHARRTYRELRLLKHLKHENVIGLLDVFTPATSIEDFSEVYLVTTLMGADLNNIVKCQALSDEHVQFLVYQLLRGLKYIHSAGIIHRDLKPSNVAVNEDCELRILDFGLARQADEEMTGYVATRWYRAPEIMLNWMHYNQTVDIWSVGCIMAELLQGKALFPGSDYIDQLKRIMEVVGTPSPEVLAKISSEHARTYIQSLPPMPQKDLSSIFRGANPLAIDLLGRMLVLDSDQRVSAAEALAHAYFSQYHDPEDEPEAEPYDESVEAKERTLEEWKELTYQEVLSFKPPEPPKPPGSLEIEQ

[9] = biological target: Mitogen-activated protein kinase kinase kinase kinase 5 (Homo sapiens) (UniProt Q9Y4K4); assay: Inhibition of KHS (unknown origin) at 10 uM after 120 mins P33 radiolabeled kinase activity assay
Mitogen-activated protein kinase kinase kinase kinase 5 (Homo sapiens), sequence (Q9Y4K4 whole entry, looked up): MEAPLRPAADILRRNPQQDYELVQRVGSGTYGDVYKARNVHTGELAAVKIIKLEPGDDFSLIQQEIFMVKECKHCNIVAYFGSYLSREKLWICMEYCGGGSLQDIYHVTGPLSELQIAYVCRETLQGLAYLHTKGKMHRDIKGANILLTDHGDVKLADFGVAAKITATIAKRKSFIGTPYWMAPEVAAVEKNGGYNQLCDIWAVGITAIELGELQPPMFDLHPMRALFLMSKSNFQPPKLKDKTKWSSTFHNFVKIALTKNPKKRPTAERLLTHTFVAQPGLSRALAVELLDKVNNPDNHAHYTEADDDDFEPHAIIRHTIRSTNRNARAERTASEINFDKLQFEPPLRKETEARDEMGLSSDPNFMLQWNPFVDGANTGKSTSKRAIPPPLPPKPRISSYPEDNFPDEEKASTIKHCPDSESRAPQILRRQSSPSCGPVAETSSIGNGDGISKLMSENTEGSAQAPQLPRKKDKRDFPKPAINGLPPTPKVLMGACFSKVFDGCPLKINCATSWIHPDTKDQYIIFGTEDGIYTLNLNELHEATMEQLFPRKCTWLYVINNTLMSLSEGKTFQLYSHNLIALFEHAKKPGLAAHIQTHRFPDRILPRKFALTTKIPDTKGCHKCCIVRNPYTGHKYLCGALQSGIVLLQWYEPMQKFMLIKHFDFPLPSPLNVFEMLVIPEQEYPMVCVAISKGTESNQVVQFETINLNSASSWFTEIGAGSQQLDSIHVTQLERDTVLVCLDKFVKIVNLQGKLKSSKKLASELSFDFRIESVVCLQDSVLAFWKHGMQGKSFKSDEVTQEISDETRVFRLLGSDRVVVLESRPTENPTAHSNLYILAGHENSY

inhibition [1] [%] | inhibition [2] [%] | inhibition [3] [%] | inhibition [4] [%] | inhibition (Homo sapiens) [%] | inhibition [5] [%] | inhibition [6] [%] | inhibition [7] [%] | inhibition [8] [%] | inhibition [9] [%] | SMILES
39.1 | 51.7 | 102 | 96.5 | 9.43 | 98.5 | 20.5 | 83.4 | -5.84 | 93.5 | CS(=O)(=O)c1cccc(Nc2nccc(-c3sc(N4CCOCC4)nc3-c3cccc(NS(=O)(=O)c4c(F)cccc4F)c3)n2)c1
12.5 | -5.19 | 19.8 | 16.4 | -4.79 | 1.69 | 77.8 | 13.9 | 10 | 33.6 | COCCNC(=O)c1ccc2c(c1)nc(-c1cnc(-c3ccc(Cl)cc3)[nH]1)n2CCOC
13.8 | 11.1 | 21.2 | 21.6 | 7.43 | -3.92 | 13.5 | 48.4 | 96.2 | 90 | CC(C)(C)c1cc(NC(=O)Nc2ccc(Oc3ccncc3)cc2)no1
